Measured values published in PubChem BioAssay AID272 (DTP/NCI, 2004).
Where “and” joins values, the source holds several entries; their conditions need not be identical. Identical values can stand only once. Records with an inconclusive call do not appear. Rule for the calls: active = survival T/C of 150% or more; inactive = T/C below 125% in these data.

Tested on: Lewis lung carcinoma i.m., BDF1 mice, T/C %
Assay: NCI In Vivo Anticancer Drug Screen. Data for tumor model Lewis Lung Carcinoma (intramuscular) in B6D2F1 (BDF1) mice
Method: The antitumor activity of compounds was measured in mice bearing transplantable tumors. Survival or tumor size were measured and the results are expressed as the measurement made in the treated group (T) divided by the measurement made in the vehicle treated control group (C). The tumor model used in this assay is Lewis Lung Carcinoma (intramuscular) in B6D2F1 (BDF1) mice

Measured: T/C

O=NN(CCCl)C(=O)NCCCl
active: endpoint: median survival time, dose: 5.0 mg/kg/injection, schedule: Q16DX002 (ip), vehicle: saline, higher = longer survival 167 % of control | endpoint: median survival time, dose: 5.0 mg/kg/injection, schedule: Q## X002 (ip), vehicle: saline, higher = longer survival 168 % of control | endpoint: median survival time, dose: 6.0 mg/kg/injection, schedule: Q01DX011 (ip), vehicle: saline, higher = longer survival 157 % of control | endpoint: median survival time, dose: 8.4 mg/kg/injection, schedule: Q01DX001 (ip), vehicle: saline, higher = longer survival 158 % of control and 160 % of control | endpoint: median survival time, dose: 14.0 mg/kg/injection, schedule: Q01DX001 (ip), vehicle: saline, higher = longer survival 156 % of control and 157 % of control | endpoint: median survival time, dose: 23.0 mg/kg/injection, schedule: Q01DX001 (ip), vehicle: saline, higher = longer survival 208 % of control and 210 % of control | endpoint: median survival time, dose: 39.0 mg/kg/injection, schedule: Q01DX001 (ip), vehicle: saline, higher = longer survival 216 % of control and 218 % of control
47 % of control: endpoint: mean tumor weight, dose: 3.0 mg/kg/injection, schedule: Q01DX011 (ip), vehicle: other, higher = larger tumour
12 % of control: endpoint: mean tumor weight, dose: 6.0 mg/kg/injection, schedule: Q01DX011 (ip), vehicle: other, higher = larger tumour
22 % of control: endpoint: mean tumor weight, dose: 65.0 mg/kg/injection, schedule: Q01DX001 (sc), vehicle: saline, higher = larger tumour
35 % of control: endpoint: mean tumor weight, dose: 39.0 mg/kg/injection, schedule: Q01DX001 (sc), vehicle: saline, higher = larger tumour
65 % of control: endpoint: mean tumor weight, dose: 23.0 mg/kg/injection, schedule: Q01DX001 (sc), vehicle: saline, higher = larger tumour
57 % of control: endpoint: mean tumor weight, dose: 1.5 mg/kg/injection, schedule: Q01DX011 (ip), vehicle: other, higher = larger tumour
inactive: endpoint: median survival time, dose: 1.0 mg/kg/injection, schedule: Q01DX009 (ip), vehicle: saline + alcohol, higher = longer survival 113 % of control | endpoint: median survival time, dose: 1.25 mg/kg/injection, schedule: Q01DX015 (ip), vehicle: saline, higher = longer survival 108 % of control | endpoint: median survival time, dose: 1.5 mg/kg/injection, schedule: Q01DX011 (ip), vehicle: other, higher = longer survival 102 % of control | endpoint: median survival time, dose: 1.5 mg/kg/injection, schedule: Q01DX011 (ip), vehicle: saline, higher = longer survival 110 % of control | endpoint: median survival time, dose: 2.0 mg/kg/injection, schedule: Q01DX011 (ip), vehicle: saline, higher = longer survival 97 % of control | endpoint: median survival time, dose: 2.5 mg/kg/injection, schedule: Q01DX015 (ip), vehicle: saline, higher = longer survival 124 % of control | endpoint: median survival time, dose: 3.0 mg/kg/injection, schedule: Q01DX011 (ip), vehicle: other, higher = longer survival 104 % of control | endpoint: median survival time, dose: 4.0 mg/kg/injection, schedule: Q01DX009 (ip), vehicle: saline + alcohol, higher = longer survival 113 % of control | endpoint: median survival time, dose: 4.0 mg/kg/injection, schedule: Q01DX011 (ip), vehicle: saline, higher = longer survival 115 % of control | endpoint: median survival time, dose: 5.0 mg/kg/injection, schedule: Q01DX001 (ip), vehicle: saline + alcohol, higher = longer survival 107 % of control | endpoint: median survival time, dose: 5.0 mg/kg/injection, schedule: Q01DX015 (ip), vehicle: saline, higher = longer survival 111 % of control | endpoint: median survival time, dose: 5.0 mg/kg/injection, schedule: Q07DX003 (ip), vehicle: saline, higher = longer survival 95 % of control | endpoint: median survival time, dose: 8.0 mg/kg/injection, schedule: Q01DX011 (ip), vehicle: saline, higher = longer survival 102 % of control and 110 % of control | endpoint: median survival time, dose: 8.4 mg/kg/injection, schedule: Q06DX002 (ip), vehicle: saline, higher = longer survival 105 % of control | endpoint: median survival time, dose: 8.4 mg/kg/injection, schedule: Q16DX002 (ip), vehicle: saline, higher = longer survival 89 % of control | endpoint: median survival time, dose: 8.4 mg/kg/injection, schedule: Q## X002 (ip), vehicle: saline, higher = longer survival 87 % of control | endpoint: median survival time, dose: 10.0 mg/kg/injection, schedule: Q01DX001 (ip), vehicle: saline + alcohol, higher = longer survival 111 % of control | endpoint: median survival time, dose: 10.0 mg/kg/injection, schedule: Q07DX003 (ip), vehicle: saline, higher = longer survival 94 % of control | endpoint: median survival time, dose: 14.0 mg/kg/injection, schedule: Q01DX001 (sc), vehicle: saline, higher = longer survival 112 % of control | endpoint: median survival time, dose: 14.0 mg/kg/injection, schedule: Q06DX002 (ip), vehicle: saline, higher = longer survival 102 % of control | endpoint: median survival time, dose: 14.0 mg/kg/injection, schedule: Q07DX003 (ip), vehicle: saline, higher = longer survival 102 % of control | endpoint: median survival time, dose: 16.0 mg/kg/injection, schedule: Q01DX011 (ip), vehicle: saline, higher = longer survival 91 % of control | endpoint: median survival time, dose: 20.0 mg/kg/injection, schedule: Q01DX001 (ip), vehicle: saline + alcohol, higher = longer survival 123 % of control | endpoint: median survival time, dose: 20.0 mg/kg/injection, schedule: Q07DX003 (ip), vehicle: saline, higher = longer survival 111 % of control | endpoint: median survival time, dose: 23.0 mg/kg/injection, schedule: Q06DX002 (ip), vehicle: saline, higher = longer survival 109 % of control | endpoint: median survival time, dose: 23.0 mg/kg/injection, schedule: Q07DX003 (ip), vehicle: saline, higher = longer survival 108 % of control | endpoint: median survival time, dose: 39.0 mg/kg/injection, schedule: Q06DX002 (ip), vehicle: saline, higher = longer survival 102 % of control | endpoint: median survival time, dose: 39.0 mg/kg/injection, schedule: Q16DX002 (ip), vehicle: saline, higher = longer survival 61 % of control and 101 % of control | endpoint: median survival time, dose: 39.0 mg/kg/injection, schedule: Q## X002 (ip), vehicle: saline, higher = longer survival 104 % of control | endpoint: median survival time, dose: 40.0 mg/kg/injection, schedule: Q01DX001 (ip), vehicle: saline + alcohol, higher = longer survival 64 % of control | endpoint: median survival time, dose: 65.0 mg/kg/injection, schedule: Q01DX001 (ip), vehicle: saline, higher = longer survival 38 % of control | endpoint: median survival time, dose: 65.0 mg/kg/injection, schedule: Q06DX002 (ip), vehicle: saline, higher = longer survival 45 % of control | endpoint: median survival time, dose: 65.0 mg/kg/injection, schedule: Q16DX002 (ip), vehicle: saline, higher = longer survival 24 % of control
76 % of control: endpoint: mean tumor weight, dose: 14.0 mg/kg/injection, schedule: Q01DX001 (sc), vehicle: saline, higher = larger tumour
